{"source": "paper PMC6815936", "about": "“A Pan-Cyclophilin Inhibitor, CRV431, Decreases Fibrosis and Tumor Development in Chronic Liver Disease Models” (The Journal of Pharmacology and Experimental Therapeutics, 2019)", "key": {"[1]": {"biological_target": "T1, recombinant Cyp A (PPIA) (Homo sapiens, UniProt P62937)", "T1 construct": "purchased R&D Systems 3589-CAB", "T1 sequence (P62937 whole entry)": "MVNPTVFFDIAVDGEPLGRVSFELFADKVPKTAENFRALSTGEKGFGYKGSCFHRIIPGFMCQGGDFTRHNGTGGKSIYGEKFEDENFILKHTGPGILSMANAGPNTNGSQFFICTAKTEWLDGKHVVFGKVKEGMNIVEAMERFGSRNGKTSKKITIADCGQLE", "experiment": "Cyclophilin isomerase assay, Cyp A", "type": "biochemical", "description": "(§1) Cyclophilin isomerase activity was measured with an assay described by [Kofron et al. (1991)] with adaptations to 96-well plates. In this assay cyclophilins catalyze cis-to-trans isomerization of a proline peptide bond in a nitroanalide-coupled peptide substrate followed by cleavage of the trans-conformer peptide by α-chymotrypsin, release of the p-nitroaniline chromogen, and quantitation of p-nitroaniline by absorbance at 410 nm. All solutions were pre-equilibrated, and all assays were conducted at 4°C. Plates were preloaded with 5 µl peptide solution consisting of N-succinyl-alanine-alanine-proline-phenylalanine-p-nitroanilide (S7388; Sigma-Aldrich) and 400 mM lithium chloride (310468; Sigma-Aldrich) in anhydrous trifluoroethanol (T63002; Sigma-Aldrich). […] Absorbance measurements with a BMG Polarstar Galaxy plate reader were begun immediately and made at 6-second intervals for 6 minutes. Reaction curves were represented by increases in optical density 410 nm as a function of reaction time. For Ki determinations, initial reaction velocities were obtained from the reaction curves and plotted relative to substrate concentration, and the curves were fitted to the enzyme competitive inhibition model (GraphPad Prism) to derive Ki, maximum velocity (Vmax), and Michaelis constant values. For IC50 determinations, the reaction curves were fitted to one-phase exponential association regressions to obtain first-order rate constants."}, "[2]": {"biological_target": "T2, recombinant Cyp B (PPIB) (Homo sapiens, UniProt P23284)", "T2 construct": "purchased Cedarlane Laboratories CLENZ313", "T2 sequence (P23284 34-216)": "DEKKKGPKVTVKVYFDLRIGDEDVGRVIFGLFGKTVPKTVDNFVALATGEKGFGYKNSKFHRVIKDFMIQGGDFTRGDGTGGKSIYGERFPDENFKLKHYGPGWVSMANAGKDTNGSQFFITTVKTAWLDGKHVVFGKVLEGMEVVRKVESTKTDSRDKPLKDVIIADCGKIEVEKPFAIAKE", "experiment": "Cyclophilin isomerase assay, Cyp B", "type": "biochemical", "description": "as §1, with “For IC50 determinations, the reaction curves were fitted to one-phase exponential association regressions to obtain first-order rate constants.” left out"}, "[3]": {"biological_target": "T3, recombinant cyclophilin G (PPIG) (Homo sapiens, UniProt Q13427)", "T3 construct": "purchased Cedarlane Laboratories CLENZ463", "T3 sequence (Q13427 whole entry)": "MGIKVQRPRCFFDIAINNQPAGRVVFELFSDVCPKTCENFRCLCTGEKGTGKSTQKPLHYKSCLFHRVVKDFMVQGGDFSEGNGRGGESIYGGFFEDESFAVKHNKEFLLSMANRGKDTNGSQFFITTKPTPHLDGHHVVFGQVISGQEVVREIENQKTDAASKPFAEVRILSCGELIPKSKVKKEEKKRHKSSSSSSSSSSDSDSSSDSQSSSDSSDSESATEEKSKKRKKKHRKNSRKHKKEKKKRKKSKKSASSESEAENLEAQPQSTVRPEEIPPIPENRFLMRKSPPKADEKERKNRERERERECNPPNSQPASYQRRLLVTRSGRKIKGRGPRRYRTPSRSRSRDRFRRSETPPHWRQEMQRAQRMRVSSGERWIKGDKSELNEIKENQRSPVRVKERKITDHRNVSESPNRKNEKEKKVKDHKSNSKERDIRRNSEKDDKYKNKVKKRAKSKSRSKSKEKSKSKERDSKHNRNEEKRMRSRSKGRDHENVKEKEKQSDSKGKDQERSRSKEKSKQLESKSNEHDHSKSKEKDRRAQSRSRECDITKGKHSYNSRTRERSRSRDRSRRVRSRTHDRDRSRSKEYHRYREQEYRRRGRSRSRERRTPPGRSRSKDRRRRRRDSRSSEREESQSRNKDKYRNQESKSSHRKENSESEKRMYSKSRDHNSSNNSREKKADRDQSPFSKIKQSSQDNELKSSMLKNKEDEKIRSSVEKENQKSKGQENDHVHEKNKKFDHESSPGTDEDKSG", "experiment": "Cyclophilin isomerase assay, cyclophilin G", "type": "biochemical", "description": "as §1, with “For IC50 determinations, the reaction curves were fitted to one-phase exponential association regressions to obtain first-order rate constants.” left out"}, "[4]": {"biological_target": "cyclophilins A, B, D, and G", "experiment": "Cyclophilin isomerase assay, all isoforms tested", "type": "biochemical", "description": "Cyclophilin isomerase activity was measured with an assay described by [Kofron et al. (1991)] with adaptations to 96-well plates. In this assay cyclophilins catalyze cis-to-trans isomerization of a proline peptide bond in a nitroanalide-coupled peptide substrate followed by cleavage of the trans-conformer peptide by α-chymotrypsin, release of the p-nitroaniline chromogen, and quantitation of p-nitroaniline by absorbance at 410 nm. All solutions were pre-equilibrated, and all assays were conducted at 4°C. Plates were preloaded with 5 µl peptide solution consisting of N-succinyl-alanine-alanine-proline-phenylalanine-p-nitroanilide (S7388; Sigma-Aldrich) and 400 mM lithium chloride (310468; Sigma-Aldrich) in anhydrous trifluoroethanol (T63002; Sigma-Aldrich). […] Cis-peptide represented 55% of the peptide isomers, based on initial reaction bursts, and therefore peptide concentration was corrected to 55% of input in subsequent calculations. […] Absorbance measurements with a BMG Polarstar Galaxy plate reader were begun immediately and made at 6-second intervals for 6 minutes. Reaction curves were represented by increases in optical density 410 nm as a function of reaction time. […]"}, "[5]": {"tested_on": "IL-2 promoter luciferase reporter, Jurkat cells", "experiment": "IL-2 luciferase reporter assay in Jurkat cells", "type": "cell-based, human", "conditions": "for IC50: 18 hours, read-out: IL-2–Luc IC50; for IL-2–Luc IC50 Fold Difference: CRV431 vs CsA", "description": "The luciferase reporter assays employed Jurkat cells stably transfected with gene constructs consisting of a luciferase gene plus human nuclear factor of activated T cells (NFAT) or interleukin-2 (IL-2) promoter elements (J1621 and J1651; Promega). The NFAT construct contained a DNA binding site only for NFAT, whereas the IL-2 construct contained binding sites for NFAT, nuclear factor κ-light-chain-enhancer of activated B cells, and activating protein-1 transcription factors. Cells were cultured in 96-well plates at 100,000 cells/well in RPMI 1640 medium (11875-093; Thermo Fisher) supplemented with 5% FBS (12483020; Thermo Fisher). Cells were activated either by precoating high protein-binding plates with 3 µg/ml anti-CD3 (UCHT clone) and anti-CD28 (CD28.2 clone) (BioLegend LEAF antibodies) or by adding phorbol myristate acetate (PMA; P8139; Sigma-Aldrich) to 15 ng/ml and A23187 ionophore (C7522; Sigma-Aldrich) to 0.75 µM. […] Cells were harvested after 18 hours of incubation, and luciferase was quantified with Promega Bio-Glo reagent (G7940; Promega) and measurement with a luminescence plate reader. Data were normalized to DMSO controls (100% stimulation) and to wells without antibody or PMA plus A23187 stimulation."}, "[6]": {"biological_target": "BSEP (Homo sapiens, UniProt O95342)", "sequence (O95342 whole entry)": "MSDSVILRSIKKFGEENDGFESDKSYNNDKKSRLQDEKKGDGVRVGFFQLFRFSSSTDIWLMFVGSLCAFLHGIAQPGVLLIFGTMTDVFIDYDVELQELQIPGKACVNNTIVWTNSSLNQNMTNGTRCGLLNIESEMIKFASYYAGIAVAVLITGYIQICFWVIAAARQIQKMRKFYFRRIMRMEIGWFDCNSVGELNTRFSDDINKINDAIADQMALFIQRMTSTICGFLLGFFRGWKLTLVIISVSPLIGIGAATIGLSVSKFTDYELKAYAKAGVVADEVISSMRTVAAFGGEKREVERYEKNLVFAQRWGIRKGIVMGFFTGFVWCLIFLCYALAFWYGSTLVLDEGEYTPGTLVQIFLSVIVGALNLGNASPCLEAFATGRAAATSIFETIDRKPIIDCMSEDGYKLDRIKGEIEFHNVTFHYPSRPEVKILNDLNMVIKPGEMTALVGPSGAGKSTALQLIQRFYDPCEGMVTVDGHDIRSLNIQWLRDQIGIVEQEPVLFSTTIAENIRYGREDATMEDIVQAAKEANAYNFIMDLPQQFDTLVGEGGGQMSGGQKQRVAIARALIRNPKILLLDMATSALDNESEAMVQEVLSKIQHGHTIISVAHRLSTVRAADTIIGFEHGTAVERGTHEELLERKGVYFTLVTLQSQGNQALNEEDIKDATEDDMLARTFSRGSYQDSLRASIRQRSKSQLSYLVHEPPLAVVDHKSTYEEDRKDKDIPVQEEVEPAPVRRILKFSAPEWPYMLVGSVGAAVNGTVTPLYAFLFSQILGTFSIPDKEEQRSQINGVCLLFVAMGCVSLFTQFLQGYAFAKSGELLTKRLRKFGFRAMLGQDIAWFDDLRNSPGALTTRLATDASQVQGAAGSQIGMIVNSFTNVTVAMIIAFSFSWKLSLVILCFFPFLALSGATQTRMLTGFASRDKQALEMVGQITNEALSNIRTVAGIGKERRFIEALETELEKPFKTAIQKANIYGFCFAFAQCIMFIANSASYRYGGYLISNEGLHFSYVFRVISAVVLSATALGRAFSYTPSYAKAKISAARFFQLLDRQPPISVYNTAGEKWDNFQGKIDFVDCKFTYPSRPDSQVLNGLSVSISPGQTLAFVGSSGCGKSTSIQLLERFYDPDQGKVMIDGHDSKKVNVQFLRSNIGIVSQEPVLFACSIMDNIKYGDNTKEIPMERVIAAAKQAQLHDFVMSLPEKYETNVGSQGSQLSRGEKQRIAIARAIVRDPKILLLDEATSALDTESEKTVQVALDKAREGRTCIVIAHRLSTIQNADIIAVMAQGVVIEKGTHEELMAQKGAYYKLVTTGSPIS", "procedure": "(§2) Bile salt export pump (BSEP) and multidrug resistance protein (MRP)1 inhibition was assessed by measuring substrate accumulation in membrane vesicles prepared from insect Sf9 cells and recombinantly expressing BSEP and MRP2 (Genomembrane). Inhibition of all other transporters was assessed by measuring substrate accumulation in cells recombinantly expressing the transporter. Known inhibitors of each transporter were used as positive controls for the assays. […] Specific, ATP-dependent uptake was determined by subtracting uptake in negative control vesicles and cells not expressing the transporters, and secondly by subtracting uptake in the absence of ATP in the assays. Specific, ATP-dependent uptake was plotted as a function of CRV431 concentrations and fitted to nonlinear regressions to obtain IC50 values."}, "[7]": {"biological_target": "OATP1B1 (Homo sapiens, UniProt Q9Y6L6)", "sequence (Q9Y6L6 whole entry)": "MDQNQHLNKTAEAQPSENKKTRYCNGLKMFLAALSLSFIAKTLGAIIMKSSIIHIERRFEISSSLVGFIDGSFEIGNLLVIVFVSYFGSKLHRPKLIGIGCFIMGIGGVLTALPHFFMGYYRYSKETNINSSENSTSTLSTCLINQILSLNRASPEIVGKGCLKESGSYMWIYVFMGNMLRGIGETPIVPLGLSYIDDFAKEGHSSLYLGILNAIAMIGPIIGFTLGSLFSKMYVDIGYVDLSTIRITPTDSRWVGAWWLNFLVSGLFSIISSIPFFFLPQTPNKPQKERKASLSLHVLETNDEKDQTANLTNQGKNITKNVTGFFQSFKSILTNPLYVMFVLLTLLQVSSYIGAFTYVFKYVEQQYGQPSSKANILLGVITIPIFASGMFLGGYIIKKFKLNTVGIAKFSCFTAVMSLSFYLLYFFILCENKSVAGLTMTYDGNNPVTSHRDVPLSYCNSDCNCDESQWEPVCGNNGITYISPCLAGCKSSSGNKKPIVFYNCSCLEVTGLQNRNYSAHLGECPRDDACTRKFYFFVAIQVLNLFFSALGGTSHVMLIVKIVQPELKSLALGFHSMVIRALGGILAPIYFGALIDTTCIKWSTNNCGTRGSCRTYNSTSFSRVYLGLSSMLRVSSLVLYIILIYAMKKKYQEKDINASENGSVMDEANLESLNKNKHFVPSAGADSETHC", "procedure": "Briefly, PGP and breast cancer resistance protein inhibition was assessed by measuring the bidirectional transport of substrates across cell monolayers in transwell culture plates. Efflux ratios were represented as (apical-to-basal flux)/(basal-to-apical flux), and efflux ratios were plotted relative to CRV431 concentration to derive IC50 values. Bile salt export pump (BSEP) and multidrug resistance protein (MRP)1 inhibition was assessed by measuring substrate accumulation in membrane vesicles prepared from insect Sf9 cells and recombinantly expressing BSEP and MRP2 (Genomembrane). Inhibition of all other transporters was assessed by measuring substrate accumulation in cells recombinantly expressing the transporter. Known inhibitors of each transporter were used as positive controls for the assays. […] Specific, ATP-dependent uptake was determined by subtracting uptake in negative control vesicles and cells not expressing the transporters, and secondly by subtracting uptake in the absence of ATP in the assays. Specific, ATP-dependent uptake was plotted as a function of CRV431 concentrations and fitted to nonlinear regressions to obtain IC50 values."}, "[8]": {"biological_target": "MRP2 (Homo sapiens, UniProt Q92887)", "sequence (Q92887 whole entry)": "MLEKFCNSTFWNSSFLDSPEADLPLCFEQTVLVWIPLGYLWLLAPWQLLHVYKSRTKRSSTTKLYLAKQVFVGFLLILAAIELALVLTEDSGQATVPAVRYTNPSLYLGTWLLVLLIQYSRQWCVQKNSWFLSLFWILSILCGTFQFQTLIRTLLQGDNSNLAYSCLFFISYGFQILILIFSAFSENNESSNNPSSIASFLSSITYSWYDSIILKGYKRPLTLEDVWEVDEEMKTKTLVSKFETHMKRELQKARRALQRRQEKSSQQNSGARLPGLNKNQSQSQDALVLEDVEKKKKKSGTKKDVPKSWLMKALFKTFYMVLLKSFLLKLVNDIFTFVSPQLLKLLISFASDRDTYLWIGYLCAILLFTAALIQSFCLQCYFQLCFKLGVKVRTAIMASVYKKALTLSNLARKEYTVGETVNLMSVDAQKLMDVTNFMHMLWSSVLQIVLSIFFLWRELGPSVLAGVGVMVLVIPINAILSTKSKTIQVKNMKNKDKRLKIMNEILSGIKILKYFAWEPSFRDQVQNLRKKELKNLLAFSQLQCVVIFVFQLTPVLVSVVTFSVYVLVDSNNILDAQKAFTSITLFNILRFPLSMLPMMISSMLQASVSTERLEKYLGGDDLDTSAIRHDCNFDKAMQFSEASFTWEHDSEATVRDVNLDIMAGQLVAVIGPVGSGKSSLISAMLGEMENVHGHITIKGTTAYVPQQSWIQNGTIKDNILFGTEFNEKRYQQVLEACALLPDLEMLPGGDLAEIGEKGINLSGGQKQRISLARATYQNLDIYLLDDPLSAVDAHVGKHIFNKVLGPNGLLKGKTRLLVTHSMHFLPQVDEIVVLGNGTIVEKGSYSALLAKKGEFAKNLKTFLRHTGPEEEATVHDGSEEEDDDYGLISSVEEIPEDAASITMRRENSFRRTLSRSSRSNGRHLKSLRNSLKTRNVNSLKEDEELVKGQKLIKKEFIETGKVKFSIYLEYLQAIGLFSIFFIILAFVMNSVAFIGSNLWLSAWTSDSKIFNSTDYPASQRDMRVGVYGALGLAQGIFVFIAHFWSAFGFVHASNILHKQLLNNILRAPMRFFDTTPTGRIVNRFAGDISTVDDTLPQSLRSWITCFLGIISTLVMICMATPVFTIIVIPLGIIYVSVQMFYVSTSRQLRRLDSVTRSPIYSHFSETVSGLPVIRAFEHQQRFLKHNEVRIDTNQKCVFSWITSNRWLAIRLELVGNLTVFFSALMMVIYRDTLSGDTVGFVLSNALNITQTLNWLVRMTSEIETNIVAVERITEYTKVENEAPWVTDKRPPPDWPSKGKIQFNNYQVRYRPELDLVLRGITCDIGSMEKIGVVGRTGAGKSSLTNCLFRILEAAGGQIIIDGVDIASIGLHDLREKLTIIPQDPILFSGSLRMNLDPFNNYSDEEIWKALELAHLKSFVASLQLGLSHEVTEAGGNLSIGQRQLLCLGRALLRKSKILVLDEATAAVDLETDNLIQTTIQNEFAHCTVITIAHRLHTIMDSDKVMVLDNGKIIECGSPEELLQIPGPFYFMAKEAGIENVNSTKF", "experiment": "Drug transporter inhibition, MRP2", "conditions": "MRP2, Vesicles", "procedure": "as §2"}}, "note": "Where two headings read alike, the source gives them in different places. Square brackets hold non-standard residues; d marks the D form. Peptide text beside a SMILES is read from it. NMeThr(4R-Me,4-(CH2)6NHAc) = CN[C@H](C(=O)O)[C@H](O)[C@H](C)CCCCCCNC(C)=O; NMeL = CN[C@@H](CC(C)C)C(=O)O; NMeV = CN[C@H](C(=O)O)C(C)C; dNMeA = CN[C@H](C)C(=O)O; Abu = CC[C@H](N)C(=O)O", "data": [{"compound": "CC[C@@H]1NC(=O)[C@H]([C@H](O)[C@H](C)CCCCCCNC(C)=O)N(C)C(=O)[C@H](C(C)C)N(C)C(=O)[C@H](CC(C)C)N(C)C(=O)[C@H](CC(C)C)N(C)C(=O)[C@@H](C)NC(=O)[C@H](C)NC(=O)[C@H](CC(C)C)N(C)C(=O)[C@H](C(C)C)NC(=O)[C@H](CC(C)C)N(C)C(=O)[C@@H](C)N(C)C1=O", "note": "[CRV431] (cyclo(A[dA][NMeL][NMeL][NMeV][NMeThr(4R-Me,4-(CH2)6NHAc)][Abu][dNMeA][NMeL]V[NMeL]))", "values": [{"measurement": "Maximum enzyme velocity (Vmax) in the presence of compound", "setting": "[1]", "value": 5.3, "unit": "µmol/s per nanomole Cyp A"}, {"measurement": "IC50 Fold Difference", "setting": "[1]; CsA IC50 vs CRV431 IC50, PPIA", "value": 10.2}, {"measurement": "IC50", "setting": "[1]; PPIA (Cyp A), one peptide substrate concentration", "value": 2.5, "unit": "nM"}, {"measurement": "Ki", "setting": "[1]; competitive enzyme inhibition model, multiple substrate concentrations, 4°C, read-out: Ki toward cyclophilin A", "value": 1.3, "unit": "nM"}, {"measurement": "fold higher potency of CRV431 vs CsA (Ki)", "setting": "[1]; ratio of Ki values", "value": 13, "unit": "fold"}, {"measurement": "IC50 Fold Difference", "setting": "[2]; CsA IC50 vs CRV431 IC50, PPIB", "value": 3.7}, {"measurement": "IC50", "setting": "[2]; PPIB (Cyp B), one peptide substrate concentration", "value": 3.1, "unit": "nM"}, {"measurement": "IC50 Fold Difference", "setting": "[3]; CsA IC50 vs CRV431 IC50, PPIG", "value": 3.8}, {"measurement": "IC50", "setting": "[3]; PPIG (Cyp G), one peptide substrate concentration", "value": 7.3, "unit": "nM"}, {"measurement": "IC50", "setting": "[4]; range over Cyp A, G, read-out: IC50 values, all cyclophilin isoforms", "value": "2.5 to 7.3", "unit": "nM"}, {"measurement": "IC50", "setting": "[4]; range over isoforms A, G (abstract), read-out: Inhibitory constant or IC50 values", "value": "1 to 7", "unit": "nM"}, {"measurement": "IC50", "setting": "[5]; CD3 + CD28 antibodies stimulation", "value": 312, "unit": "nM"}, {"measurement": "IL-2–Luc IC50 Fold Difference", "setting": "[5]; CD3 + CD28 antibodies", "value": 34.6}, {"measurement": "IL-2–Luc IC50 Fold Difference", "setting": "[5]; PMA + A23187", "value": 36.9}, {"measurement": "IC50", "setting": "[5]; PMA + A23187 stimulation", "value": 300, "unit": "nM"}, {"measurement": "times less potent than CsA on Jurkat–IL-2 cells", "setting": "[5]; ratio of CRV431 and CsA IC50", "value": "approximately 35 times"}, {"measurement": "IC50", "setting": "[6]", "value": 1420, "unit": "nM"}, {"measurement": "IC50", "setting": "[7]", "value": 300, "unit": "nM"}, {"measurement": "CRV431 Inhibitory Potency vs. CsA", "setting": "[8]", "value": 2.1, "unit": "× less"}]}]}
